These results are taken from ChEMBL document CHEMBL6103563, “Chiral recognition of CIAC001 isomers in regulating pyruvate kinase M2 and mitigating neuroinflammation” (Eur J Med Chem, 2025).

The source made the active and inactive calls. The calls are words filed in the database; no cut-off is given here.

The term IC50 denotes the point on the concentration scale where inhibition reaches its midpoint. By Ki is commonly meant the equilibrium dissociation constant of an inhibitor or competing ligand from its target. As usually defined, the ΔTm is the shift of the melting midpoint relative to a reference. A word on the Kd: it is a measure of binding affinity in units of concentration. In general, Tmax refers to the time at which the peak concentration occurs. For orientation: Kp means the ratio of the level in a tissue or fluid to that in plasma or blood. By half-life is commonly meant the time in which the quantity being followed falls by half. The MRT is the average time that molecules of a dose stay in the body.

Series [1] has as its system BV-2. The experiment in a line: Anti-neuroinflammatory activity in mouse BV-2 cells assessed as inhibition of LPS-induced NO production incubated for 24 hrs in presence of LPS by fluorescence-based analysis. In kind it is functional, cell-based. The settings on record: for IC50: BV-2, 24 h.
Another series addresses Cannabinoid receptor 1 (Homo sapiens, UniProt P21554). The experiment in a line: Binding affinity to CB1 receptor (unknown origin).
Another series has as its target Cannabinoid receptor 2 (Homo sapiens, UniProt P34972). The experiment in a line: Binding affinity to CB2 receptor (unknown origin).
Series [2] has as its system BV-2. Nature of the series: Inhibition of LPS-inuced nuclear translocation of PKM2 in mouse BV-2 cells assessed as decrease in PKM2 content in nucleus at 5 uM incubated for 6 hrs in presence of LPS by western blot analysis. Format: subcellular. Conditions: filed as modulator.
The subject of series [3] is BV-2. Nature of the series: Anti-neuroinflammatory activity in mouse BV-2 cells assessed as inhibition of LPS-induced IL-1 beta mRNA expression at 10 uM by qRT-PCR analysis. In kind it is functional, cell-based. (In general: In qPCR the cycle at which signal appears reflects the starting amount.)
Series [4] has as its system BV-2. The experiment in a line: Anti-neuroinflammatory activity in mouse BV-2 cells assessed as inhibition of LPS-induced microglial activation by measuring inhibition of morphological changes at 5 uM incubated for 24 hrs in presence of LPS by inverted microscopic analysis. In kind it is functional, cell-based.
Series [5] deals with T1, Pyruvate kinase PKM (Homo sapiens, UniProt P14618). Nature of the series: Binding affinity to PKM2 (unknown origin) assessed as decrease in thermal stabilization of protein by measuring change in melting temperature at 100 uM incubated for 2 hrs at room temperature followed by heating at varying temperatures for 5 mins and later cooled at 25 degC for 3 mins by CETSA analysis. The settings on record: filed as modulator, time 128.0 min.
Target sequence in this assay (P14618 2-531 limits assumed): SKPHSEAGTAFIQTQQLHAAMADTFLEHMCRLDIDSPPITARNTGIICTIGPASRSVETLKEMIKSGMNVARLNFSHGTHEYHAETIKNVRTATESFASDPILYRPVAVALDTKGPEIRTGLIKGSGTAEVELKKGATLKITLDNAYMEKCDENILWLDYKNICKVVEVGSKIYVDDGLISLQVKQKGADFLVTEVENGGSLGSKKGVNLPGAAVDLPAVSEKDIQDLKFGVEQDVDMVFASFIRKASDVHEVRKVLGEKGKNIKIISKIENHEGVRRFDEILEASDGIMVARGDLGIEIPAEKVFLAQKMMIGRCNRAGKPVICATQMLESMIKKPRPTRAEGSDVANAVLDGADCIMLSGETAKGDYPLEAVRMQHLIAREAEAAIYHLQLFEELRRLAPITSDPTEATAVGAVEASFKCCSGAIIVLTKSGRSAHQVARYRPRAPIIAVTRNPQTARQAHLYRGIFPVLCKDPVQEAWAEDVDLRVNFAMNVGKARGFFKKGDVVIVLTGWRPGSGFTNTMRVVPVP

Series [6] has as its system Mus musculus. The experiment in a line: Anti-neuroinflammatory activity in BALB/c mouse assessed as decrease in morphine-induced IL-1 beta mRNA expression in medial prefrontal cortex at 0.2 mg/kg administration started on day 3 after 2 days of chamber habituation followed by treatment with morphine on days 4,6 and 8 and with vehicle on days 5,7 and 9 and measured on day 10 by qRT-PCR analysis. Format: functional, organism-based. The settings on record: time 8.0 day.

The subject of series [7] is Mus musculus. Nature of the series: Anti-morphine addiction activity against BALB/c mouse assessed as decrease in preference for morphine-paired chamber at 0.2 mg/kg administration started on day 3 after 2 days of chamber habituation followed by treatment with morphine on days 4,6 and 8 and with vehicle on days 5,7 and 9 and measured on day 10 by conditional place preference test. In kind it is functional, organism-based. The settings on record: time 8.0 day.

The test system of series [8] is BV-2. The experiment in a line: Anti-neuroinflammatory activity in mouse BV-2 cells assessed as inhibition of LPS-induced IL-1 beta mRNA expression at 1 uM by qRT-PCR analysis. In kind it is functional, cell-based.
Series [9] deals with T1, Pyruvate kinase PKM. The experiment in a line: Binding affinity to PKM2 (unknown origin) assessed as dissociation constant by fluorescence titration based spectrophotometric analysis.
Target sequence in this assay (P14618 whole entry): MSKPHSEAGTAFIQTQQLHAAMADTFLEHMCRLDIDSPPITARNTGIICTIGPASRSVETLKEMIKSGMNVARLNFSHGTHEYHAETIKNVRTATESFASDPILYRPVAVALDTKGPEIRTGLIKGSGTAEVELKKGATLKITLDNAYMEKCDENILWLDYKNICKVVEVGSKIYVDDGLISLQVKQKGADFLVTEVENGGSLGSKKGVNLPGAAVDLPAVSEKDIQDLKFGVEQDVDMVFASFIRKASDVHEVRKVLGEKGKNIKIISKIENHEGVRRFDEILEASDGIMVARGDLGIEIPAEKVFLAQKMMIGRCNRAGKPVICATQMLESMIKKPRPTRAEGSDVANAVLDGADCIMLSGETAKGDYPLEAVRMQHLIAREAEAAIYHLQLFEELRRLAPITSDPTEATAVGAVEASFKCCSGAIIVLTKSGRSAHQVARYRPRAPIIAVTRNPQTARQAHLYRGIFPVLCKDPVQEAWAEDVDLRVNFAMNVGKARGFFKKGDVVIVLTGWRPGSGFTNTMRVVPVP
The species named for a further series is Homo sapiens. The experiment in a line: Binding affinity to PKM2 F26A mutant (unknown origin) at 10 to 50 uM by fluorescence titration based spectrophotometric analysis. Conditions: dose 10-50 µM.
Series [10] is described as follows: Tmax in BALB/c mouse brain at 10 mg/kg, po measured for 4 hrs by MS-HPLC analysis. In kind it is ADME, organism-based.
The nature of series [11]: Tmax in BALB/c mouse plasma at 10 mg/kg, po measured for 4 hrs by MS-HPLC analysis. Format: ADME, organism-based.
Series [12] in a line: Cmax in BALB/c mouse brain at 10 mg/kg, po measured for 4 hrs by MS-HPLC analysis. Format: ADME, organism-based. The settings on record: in vivo.
Series [13] in a line: Cmax in BALB/c mouse plasma at 10 mg/kg, po measured for 4 hrs by MS-HPLC analysis. In kind it is ADME, organism-based. Conditions: in vivo.
Series [14] can be described thus: Ratio of Cmax in brain to plasma in BALB/c mouse at 10 mg/kg, po measured for 4 hrs by MS-HPLC analysis. In kind it is ADME, organism-based. Conditions: brain and plasma.
Series [15] is described as follows: Half life in BALB/c mouse brain at 10 mg/kg, po measured for 4 hrs by MS-HPLC analysis. In kind it is ADME, organism-based.
Series [16] can be described thus: Mean residence time in BALB/c mouse brain at 10 mg/kg, po measured for 4 hrs by MS-HPLC analysis. In kind it is ADME, organism-based.
A short description of series [17]: Half life in BALB/c mouse plasma at 10 mg/kg, po measured for 4 hrs by MS-HPLC analysis. In kind it is ADME, organism-based.
Series [18] can be described thus: Mean residence time in BALB/c mouse plasma at 10 mg/kg, po measured for 4 hrs by MS-HPLC analysis. In kind it is ADME, organism-based.
Series [19] can be described thus: AUC in BALB/c mouse brain at 10 mg/kg, po measured for 4 hrs by MS-HPLC analysis. The settings on record: in vivo. Format: ADME, organism-based.
A short description of series [20]: AUC in BALB/c mouse plasma at 10 mg/kg, po measured for 4 hrs by MS-HPLC analysis. In kind it is ADME, organism-based. The settings on record: in vivo.
A short description of series [21]: Ratio of AUC in brain to plasma in BALB/c mouse at 10 mg/kg, po measured for 4 hrs by MS-HPLC analysis. The settings on record: brain and plasma. In kind it is ADME, organism-based.
Series [22] in a line: Acute toxicity against BALB/c mouse assessed as mortality at 20 mg/kg, ip measured after 2 hrs. Format: organism-based. Conditions: in vivo.
The nature of series [23]: Acute toxicity against BALB/c mouse assessed as changes in body weight at 20 mg/kg, ip measured for 14 days. Conditions: in vivo, 336 h, time 14 day. In kind it is organism-based.

Cannabinoid receptor 1, sequence (P21554 whole entry): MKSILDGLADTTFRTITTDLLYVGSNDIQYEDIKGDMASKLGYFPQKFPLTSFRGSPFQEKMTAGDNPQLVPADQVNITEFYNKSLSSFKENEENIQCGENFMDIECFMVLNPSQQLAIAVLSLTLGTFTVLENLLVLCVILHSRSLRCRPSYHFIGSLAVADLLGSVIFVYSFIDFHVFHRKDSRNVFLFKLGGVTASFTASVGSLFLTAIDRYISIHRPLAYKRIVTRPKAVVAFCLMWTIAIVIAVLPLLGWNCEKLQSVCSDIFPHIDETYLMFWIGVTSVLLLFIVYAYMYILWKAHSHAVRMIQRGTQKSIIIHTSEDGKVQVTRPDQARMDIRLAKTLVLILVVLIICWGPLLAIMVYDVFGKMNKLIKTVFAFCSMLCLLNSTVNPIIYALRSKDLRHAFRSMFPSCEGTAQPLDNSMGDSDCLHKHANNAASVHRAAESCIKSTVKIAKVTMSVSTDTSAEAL
Cannabinoid receptor 2, sequence (P34972 whole entry): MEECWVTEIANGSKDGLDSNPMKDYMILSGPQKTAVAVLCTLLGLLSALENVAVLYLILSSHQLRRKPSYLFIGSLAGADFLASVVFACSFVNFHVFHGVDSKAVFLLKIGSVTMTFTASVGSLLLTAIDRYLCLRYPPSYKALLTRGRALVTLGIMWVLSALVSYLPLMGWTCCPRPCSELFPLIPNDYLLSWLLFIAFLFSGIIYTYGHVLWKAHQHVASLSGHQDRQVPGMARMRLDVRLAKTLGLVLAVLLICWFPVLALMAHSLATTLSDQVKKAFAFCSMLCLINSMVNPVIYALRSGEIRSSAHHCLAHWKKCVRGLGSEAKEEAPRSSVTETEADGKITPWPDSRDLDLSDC

As to `C=C(C)[C@H]1CCC(C)=C[C@@H]1c1c(O)cc([C@H](C)n2nccn2)cc1O`, the IC50 with BV-2 [1] was greater than 30000 nM.

For `CCCCCCC(C)(C)c1cc(O)c2c(c1)OC(C)(C)c1ccc(C)c(CO)c1-2`, the figures for the inhibitory constant (Ki) at Cannabinoid receptor 1 and on Cannabinoid receptor 2 were 0.066 nM and 96 nM, respectively.

Regarding `C=C(C)[C@@H]1CCC(C)=C[C@H]1c1c(O)cc([C@@H](C)n2nccn2)cc1O`, the IC50 in the series on BV-2 [1] stood at 13200 nM. Further, in the series on BV-2 [2], the inhibition entry is “Active; Weak Inhibitory Effect Observed”. Besides, the outcome in the series on BV-2 [3] was Active. Besides, the figures for the Activity result with BV-2 [4] and with Mus musculus [6] were “Active; Lessened Effect Observed” and “Active; Minimal Effect Observed”, respectively. Further, the thermal shift (ΔTm) on Pyruvate kinase PKM [5] was 1.6 °C. In addition, in the series with Mus musculus [7], the outcome was inactive.

As to `C=C(C)[C@@H]1CCC(C)=C[C@H]1c1c(O)cc([C@H](C)n2nccn2)cc1O`, the Activity result in the series on BV-2 [1] was “Dose-dependent-effect”; in series [22], “Non-toxic”; in [23] it was “Non-toxic”. For the same molecule, the half-inhibitory concentration (IC50) in the series on BV-2 [1] came out at 3300 nM. Also, the inhibition result in the series with BV-2 [2] is “Active”. The result with BV-2 [3], with BV-2 [8], in the series on BV-2 [4], in the series with Mus musculus [6] and with Mus musculus [7] was Active. Besides, the Kd at Pyruvate kinase PKM [9] was 2200 nM. Moreover, the ΔTm at Pyruvate kinase PKM [5] was found to be 4.1 °C. Besides, the result in the series filed under Homo sapiens was inactive. The Tmax in [10] was 18 min; in series [11] it was 30 min. For the same molecule, the Cmax in [12] is given as 130 ng/mg; in series [13] it was 46.6 ng/mg. Besides, the values for the partition ratio (Kp) at 4 h in series [14] and in series [21] were 3 and greater than 2, respectively. Also, the values for the half-life in [15] and in series [17] were 48 min and 42 min, respectively. The mean residence time MRT in [16] was 102 min; in series [18] it was 72 min. Further, the AUC was determined as 137.7 ng·h/g in [19] and 75.5 ng·h/g in series [20].

As for `C=C(C)[C@H]1CCC(C)=C[C@@H]1c1c(O)cc([C@@H](C)n2nccn2)cc1O`, the IC50 in the series on BV-2 [1] was greater than 30000 nM.
